Values of other authors as cited in publication PMC12843750, “Integrated Biomimetic 2D-LC and Permeapad® Assay for Profiling the Transdermal Diffusion of Pharmaceutical Compounds” (Molecules, 2026).

Details: ref Drugbank

pKa: 9.46
Compound: CC(=O)Nc1ccc(O)cc1 [Paracetamol]
